Measured values from patent US20100179185A1, “Novel Aminothienopyridinone Derivatives Processes for Preparing Them and Pharmaceutical Compositions Thereof” (UCB PHARMA, S.A., priority 2006, published 2010).

What was measured:
[1] = system: LPS stimulated release of TNF from Human whole blood; experiment: LPS stimulation of whole blood, TNF-α release (ELISA); format: cell-based; conditions: LPS 1 μg/ml, 18 hours, 37° C., n=12
Method: Inhibitor stocks (10 mM) are kept as a frozen solution (−20° C.) in DMSO. Serial dilutions of inhibitors are prepared in DMSO as 200-times concentrated stocks. Inhibitors are diluted 1 in 200 into tissue culture media, prewarmed to 37° C. and transferred to plates containing PBMC. PBMC and inhibitors are incubated together for 30 mins prior to addition of LPS. Inhibitors used in whole blood assays are prepared according to a different regime. Using the same stock solution, serial dilutions of inhibitors are prepared in DMSO. Inhibitors (14) are then diluted 1 in 500 straight into whole blood. Inhibitor is incubated with whole blood for 30 mins prior to the addition of LPS.
Whole blood is taken by venous puncture using heparinised vacutainers (Becton Dickinson), and 500 μl of blood aliquoted into each well of a 96 deep well plate. After the addition of inhibitor, blood is stimulated with an optimal dose of LPS (E coli strain B5:055, Sigma, at a final concentration of 1 μg ml^−1) and incubated at 37° C. without CO2 for 18 hours. TNF-α levels are measured from cell free supernatants by sandwich ELISA (R&D Systems, # DY210).

[2] = system: LPS stimulated TNF release in rat; experiment: Rat LPS induced TNF release; format: in vivo; conditions: 1.5 h, male Lewis rats, LPS 1 mg/kg i.v., plasma TNFα at 90 minutes, compound dosed p.o.
Method: Male Lewis rats (180-200 g) are anaesthetized with Isofluor and injected i.v. with LPS (1 mg/kg) in a volume of 0.5 ml sterile saline. After 90 minutes blood is collected into heparin tubes for preparation of plasma samples. Plasma is stored at −80° C. prior to assay for TNFα by commercial ELISA.

IC50 [1]: 30 to 200 nM
Structure (SMILES): Cc1cccc(Nc2c(C(=O)N3CCC[C@@H]3CO)sc3c2ccc(=O)n3-c2c(F)cccc2F)n1 [Compound 1]
ED50 [2]: < 10 mg/kg
